Conditions: pH 7.4
Procedure: First, the top part of the skin-PAMPA (PAMPA-Certramide) sandwich, which contains the membrane, was hydrated overnight with the hydration solution. Different buffer solutions at pH 3, 4, 5, 6, 7, and 7.4 were prepared to solve the samples. To prepare them, 25 mL of concentrated PRISMA HTTM was diluted to 1 L with water, and 0.5 M NaOH was added to obtain the desired pH. Above pH 8, the skin-PAMPA membrane becomes degraded [40], so pH 7.4 was the highest pH used in the present work. In order to measure the intrinsic permeability, each sample was dissolved in the buffer solution with a pH that ensured the presence of the neutral form. […] In all instances, the pH of the acceptor compartment was 7.4.
A total of 180 µL of sample solution was placed in the donor compartment, and 200 µL of pH 7.4 buffer was placed in the acceptor compartment.
According to previous studies, in which the conditions in the skin-PAMPA measurements were optimized [40], the skin-PAMPA sandwich was incubated at 32 °C for 4 h. Afterwards, the concentration of the compounds was measured in both the donor and the acceptor plates. Additionally, the initial sample solution was quantified. […] The injection volume was 5 μL, and 3 to 5 replicate measurements were performed per compound. Every well-plate contained only one compound.
When the pH is different on the two sides of the membrane, a gradient-pH is created and the permeation of ionizable molecules can be altered. This gradient-pH implies two different permeability coefficients, one on each direction of the membrane, denoted by the subscript (D→A) or (A→D). Equation (5) has two unknowns, Pe(A→D) and Pe(D→A), so an iterative method has to be used to solve it. To this purpose, two different experiments were carried out for each compound, one with a gradient-pH and the other with an iso-pH, that is, the same pH in both compartments (7.4). For the iso-pH, Pe(A→D) = Pe(D→A).
Finally, Equation (5) was iteratively solved for Pe(D→A). Initially, ra was assumed to be rv, but the ra value was improved after each iteration by using the newly obtained Pe(D→A). The process continued until self-consistency was reached within the precision required (0.001). The Solver tool in Microsoft Excel was used for the iterative process.
In the donor compartment, a pH was used in which the compound was in its neutral form, whereas in the acceptor compartment, the buffer was at pH 7.4.

SMILES | log P0 (intrinsic permeability, PAMPA-Certramide)
COC(=O)Cc1ccc(O)cc1 [4-hydroxymethyl phenylacetate] | -5.07
CCC1(CC)C(=O)NC(=O)NC1=O [5,5-diethylbarbituric acid (barbital), 5,5-diethylbarbituric acid] | -5.75
CCC1(c2ccccc2)C(=O)NC(=O)NC1=O [5-ethyl-5-phenylbarbituric acid] | -6.05
Nc1ccccc1 [aniline] | -4.55
CCNc1nc(Cl)nc(NC(C)C)n1 [atrazine] | -4.67
C[C@]12CCC(=O)C=C1CC[C@@H]1[C@@H]2CC[C@@]2(C)[C@H]1CC[C@]2(O)C(=O)CO [corteloxone] | -5.45
CC(=O)[C@@]1(O)CC[C@H]2[C@@H]3CCC4=CC(=O)CC[C@]4(C)[C@H]3CC[C@@]21C [hydroxiprogesterone] | -4.70
COc1ccccc1 [methyl phenyl ether] | -4.34
CC(=O)CC(c1ccccc1)c1c(O)c2ccccc2oc1=O (stereo not drawn) [warfarin] | -4.63

Conditions: cited from earlier work

SMILES | log P0 (permeability, PAMPA-IPM)
CCC1(c2ccccc2)C(=O)NC(=O)NC1=O [5-ethyl-5-phenylbarbituric acid] | -5.15
CN1CCC[C@H]1c1cccnc1 [nicotine] | -4.58
Oc1ccccc1 [phenol] | -4.14

From publication PMC10385989, “Evaluation of the Ability of PAMPA Membranes to Emulate Biological Processes through the Abraham Solvation Parameter Model” (Membranes, 2023)
